The source of these data is PubChem BioAssay (NCI).

Structures are written as SMILES.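 Test compounds were applied to cells in 96-well plates for 48 hours at 5 doses. GI50: concentration for 50% inhibition of growth. TGI marks complete inhibition of growth.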

Among the test systems are 786-0 renal; HOP-92 NSCLC; KM12 colon; M14 melanoma; SK-MEL-2 melanoma; SNB-19 CNS; UACC-62 melanoma; PC-3 prostate; T-47D breast.
What all share (test): NCI tumour cell line growth inhibition, 48 h

Take `CCCCCCCCCC(=O)OCC1OC(n2cc(F)c(=O)[nH]c2=O)C(N)C(OC(=O)CCCCCCCCC)C1O` (configuration not stated): the TGI with 786-0 renal is 32.9 µM; with HOP-92 NSCLC, 37 µM; with KM12 colon it was 41.2 µM; in the assay on M14 melanoma, 34.3 µM; in the assay on SK-MEL-2 melanoma it was 29.6 µM; with SNB-19 CNS it was 33.6 µM. Further, in the assay on UACC-62 melanoma, the TGI came out at 32.7 µM.
For the molecule `COc1ccc(OC)c2cc(C3(C)SCCCS3)ccc12`, the TGI with 786-0 renal, in the assay with KM12 colon, in the assay with M14 melanoma, in the assay on SK-MEL-2 melanoma, in the assay on SNB-19 CNS and in the assay with UACC-62 melanoma was > 100 µM each time.
With `Cc1ccc2[nH]c(=O)c(C(C#N)c3ccccc3)nc2c1` (configuration not stated), the TGI with 786-0 renal was > 100 µM; in the assay on HOP-92 NSCLC, 93.8 µM; in the assay on KM12 colon it was > 100 µM; in the assay with M14 melanoma, > 100 µM; in the assay with SK-MEL-2 melanoma, 65.4 µM; in the assay with SNB-19 CNS, 89.2 µM. The molecule also had a TGI in the assay on UACC-62 melanoma of 75.1 µM.
As for `Cc1ccc(C2=NO[C@@H]3C(=O)N(c4ccc(Cc5ccc(N6C(=O)[C@H]7C(c8ccc(C)cc8)=NO[C@H]7C6=O)cc5)cc4)C(=O)[C@H]23)cc1`, the TGI with 786-0 renal, with HOP-92 NSCLC, in the assay on KM12 colon, with M14 melanoma, in the assay on SK-MEL-2 melanoma and in the assay with UACC-62 melanoma was > 100 µM each time.
On to `CCN(CC)c1ccc2c(c1)N=C1N=CC=CN1C2(c1ccc(N(C)C)cc1)c1ccc(N(C)C)cc1`, for which the TGI was 24.1 µM in the assay with 786-0 renal; 8.6 µM in the assay on HOP-92 NSCLC; 15.6 µM in the assay with KM12 colon; 10.5 µM with M14 melanoma; 31.1 µM in the assay with SK-MEL-2 melanoma; 24 µM with SNB-19 CNS. The same molecule displayed a TGI in the assay on UACC-62 melanoma of 24.1 µM.
Regarding `C[C@]12CCC(=O)C=C1CC[C@@H]1[C@@H]2CC[C@]2(C)C(=O)/C(=C/c3cccc(OCCN4CCOCC4)c3)C[C@@H]12`, the GI50 in the assay on 786-0 renal was 12.8 µM; with HOP-92 NSCLC it was 10.2 µM; in the assay with KM12 colon, 9.02 µM; in the assay on M14 melanoma it was 8.9 µM; in the assay on PC-3 prostate, 3.15 µM; in the assay on SK-MEL-2 melanoma, 16.1 µM. The values for the GI50 in the assay with SNB-19 CNS, with T-47D breast and with UACC-62 melanoma were 15.8 µM, 2.9 µM and 11 µM, respectively. Also, the TGI was > 100 µM in the assay on 786-0 renal; 31.7 µM with HOP-92 NSCLC; > 100 µM with KM12 colon; 21.5 µM with M14 melanoma; 29.2 µM in the assay with PC-3 prostate; 34.4 µM in the assay on SK-MEL-2 melanoma. Besides, the values for the TGI in the assay with SNB-19 CNS, with T-47D breast and with UACC-62 melanoma were > 100 µM, > 100 µM and 27.5 µM, respectively.
For `CC1C(=O)N(C)C2(CO)C(=O)O[C@H](C)C12O` (some centres not stated), the TGI with 786-0 renal, with KM12 colon, with M14 melanoma, in the assay on SK-MEL-2 melanoma, in the assay with SNB-19 CNS and in the assay on UACC-62 melanoma was > 100 µM throughout.
Take `O=C(O)/C(Cl)=C(\Cl)C(=O)Nc1ccccc1`: the TGI in the assay on 786-0 renal, in the assay on HOP-92 NSCLC, in the assay with KM12 colon, with M14 melanoma, with SK-MEL-2 melanoma and in the assay with SNB-19 CNS was > 100 µM in each case. Further, the TGI with UACC-62 melanoma is > 100 µM.
For the molecule `O=C(C=Nc1ccccc1C(=O)[O-])c1cccs1.O=C(C=Nc1ccccc1C(=O)[O-])c1cccs1.[Cu+2]`, the TGI in the assay with 786-0 renal, in the assay with HOP-92 NSCLC, in the assay on KM12 colon, with M14 melanoma, with SK-MEL-2 melanoma and in the assay with SNB-19 CNS was > 100 µM each time. In addition, the TGI in the assay on UACC-62 melanoma is > 100 µM.
Consider `COC(=O)C(=O)C(C(=O)C(=O)Nc1cc([N+](=O)[O-])ccc1[N+](=O)[O-])c1nc2ccc(C(=O)c3ccccc3)cc2[nH]c1=O` (configuration not stated), for which the TGI in the assay on 786-0 renal was > 100 µM; in the assay on KM12 colon it was > 100 µM; with M14 melanoma, 98.8 µM; in the assay on SK-MEL-2 melanoma, > 100 µM; in the assay with SNB-19 CNS, > 100 µM.
Take `COC1CC2CCC(C)[C@](O)(O2)C(=O)C(=O)N2CCCCC2C(=O)OC(C(C)CC2CCC(O)C(OC)C2)CC(=O)C(C)C=C(C)C(OC(=O)CN(C)C)C(OC)C(=O)C(C)CC(C)/C=C/C=C/C=C\1C` (some centres not stated): the TGI amounted to 24.7 µM with 786-0 renal; 21.6 µM in the assay with HOP-92 NSCLC; 23.1 µM in the assay on KM12 colon; 23 µM in the assay on M14 melanoma; 21.2 µM with PC-3 prostate; 15.1 µM in the assay on SK-MEL-2 melanoma. For the same molecule, the TGI with SNB-19 CNS was found to be 15.9 µM; in the assay on T-47D breast, 25 µM; with UACC-62 melanoma it was 20.2 µM.
`CSC(=S)NNC(=O)c1ccncc1`: the TGI is 30.8 µM in the assay on 786-0 renal; 60.8 µM in the assay on HOP-92 NSCLC; > 100 µM in the assay with KM12 colon; 42.3 µM in the assay on M14 melanoma; 33.9 µM with SK-MEL-2 melanoma; 53.1 µM in the assay with SNB-19 CNS. This molecule also returned a TGI with UACC-62 melanoma of 31.1 µM.
As to `CC1OC(O)CC(OC(=O)c2ccccc2)C1OC(=O)c1ccccc1` (configuration not stated), the TGI was 82.7 µM with 786-0 renal; 35 µM in the assay with HOP-92 NSCLC; > 100 µM in the assay with KM12 colon; 30.3 µM in the assay on M14 melanoma; > 100 µM in the assay with SNB-19 CNS; 31.5 µM with UACC-62 melanoma.
As for `COC(=O)C1=CC2OC1(C)C1(CC1)C2=O` (configuration not stated), the TGI in the assay on 786-0 renal is 31.8 µM; with KM12 colon, 43.9 µM; with M14 melanoma, 29.1 µM; in the assay on SNB-19 CNS, > 100 µM.
On to `O=C1c2ccccc2C(=O)c2nc(-c3ccccc3)c(-c3ccccc3)nc21`, for which the TGI in the assay with 786-0 renal, in the assay on HOP-92 NSCLC, in the assay on KM12 colon, in the assay on M14 melanoma, in the assay with SK-MEL-2 melanoma and in the assay with SNB-19 CNS was > 100 µM each time. Further, in the assay on UACC-62 melanoma, the TGI was > 100 µM.
`CC12CC3CC(C)(C1)CC(N=[N+]=[N-])(C3)C2`: the TGI with 786-0 renal, in the assay with HOP-92 NSCLC, in the assay with KM12 colon, with M14 melanoma, in the assay with SK-MEL-2 melanoma and in the assay with SNB-19 CNS was > 100 µM throughout. Besides, the TGI in the assay with UACC-62 melanoma is > 100 µM.
Turning to `COc1ccc2c(c1)[n+]([O-])c(-c1nc3ccccc3s1)c(N)[n+]2[O-]`, the TGI with 786-0 renal, in the assay with HOP-92 NSCLC, in the assay with KM12 colon, with M14 melanoma, in the assay with SK-MEL-2 melanoma and in the assay on SNB-19 CNS was > 100 µM throughout.
